Test results as given in patent US8426446B2, “Acrylamide derivative and use thereof in manufacture of medicament” (Beijing Shiqiao Biopharm Co. Ltd., priority 2009, dated 2013).

system: Human Leukemia Cell K562; assay: Inhibitory effects on Human Leukemia Cell K562 (MTT); assay type: cell-based; conditions: Homo sapiens, K562 cells, 72 h~120 h
Method: K562 cells were seeded in RPMI1640 cell culture solution containing 10% of fetal calf serum (supplemented with 100 ku/L of penicillin and streptomycin each). Culture dish was placed in the cell incubator under 5% of CO2 at 37° C. The culture solution was centrifuged and replaced every 2-3 days to passage and collect cells.
Cells in logarithmic growth phase were formulated into the cell suspensions at the required concentration with RPMI1640 culture solution containing 10% fetal calf serum. The resulting mixture was added to 96-wells cell culture plate at 3,000 cells per well (100 μl); after 12 hours of culture, to each well was added different amount of stock solution. The final concentrations of the samples are 100 μg/ml, 10 μg/ml, 1 μg/ml, […], and 0.01 μg/ml respectively in triplicate. After 72 h˜120 h, supernatant was discarded. To each well was added […] fresh serum-free culture solution containing 5 mg/ml blue tetrazolium (MTT). After culturing for 4 hours at 37° C., the mixture was centrifuged at 3000 rpm/min and the supernatant was discarded. Formazan was dissolved with 200 μl DMSO. After vortex oscillation for 1 min, absorbance value (OD-value) was measured on microplate reader at the wavelength of 570/450 nm. Inhibition ratio=(control group OD-value−drug group OD-value)/control group OD-value×100%.

IC50 [nM] | SMILES
< 1 | Cc1ccc(C(=O)Nc2ccc(F)c(C(F)(F)F)c2)cc1NC(=O)/C=C/c1cccnc1 [compound 60, N-(4-fluoro-3-(trifluoromethyl)phenyl)-4-methyl-3-(3-(pyridin-3-yl)acrylamido)benzamide]
< 1 | Cc1ccc(NC(=O)c2ccc(C)c(NC(=O)/C=C/c3cccnc3)c2)cc1F [compound 61, N-(3-fluoro-4-methylphenyl)-4-methyl-3-(3-(pyridin-3-yl)acrylamido)benzamide]
< 1 | Cc1ccc(C(=O)Nc2ccc(C)c(C(F)(F)F)c2)cc1NC(=O)/C=C/c1cccnc1 [compound 62, N-(4-methyl-3-(trifluoromethyl)phenyl)-4-methyl-3-(3-(pyridin-3-yl)acrylamido)benzamide]
2 to 20 | Cc1ccc(NC(=O)c2ccc(C)c(NC(=O)/C=C/c3cccnc3)c2)cc1 [compound 66, N-(4-(methyl)phenyl)-4-methyl-3-(3-(pyridin-3-yl)acrylamido)benzamide]
2 to 20 | Cc1ccc(C(=O)Nc2c(C)cccc2Cl)cc1NC(=O)/C=C/c1cccnc1 [compound 67, N-(2-chloro-6-methylphenyl)-4-methyl-3-(3-(pyridin-3-yl)acrylamido)benzamide]
< 1 | Cc1ccc(C(=O)Nc2ccc(N3CCOCC3)c(C(F)(F)F)c2)cc1NC(=O)/C=C/c1cccnc1 [compound 69, N-(4-(morpholin-4-yl)-3-(trifluoromethyl)phenyl)-4-methyl-3-(3-(pyridin-3-yl)acrylamido)benzamide]
< 1 | Cc1ccc(C(=O)Nc2ccc(N3CCN(C)CC3)c(C(F)(F)F)c2)cc1NC(=O)/C=C/c1cccnc1 [compound 71, N-(4-(4-methylpiperazin-1-yl)-3-(trifluoromethyl)phenyl)-4-methyl-3-(3-(pyridin-3-yl)acrylamido)benzamide]
2 to 20 | CCN1CCN(c2ccc(NC(=O)c3ccc(C)c(NC(=O)/C=C/c4cccnc4)c3)cc2C(F)(F)F)CC1 [compound 74, N-(4-(4-ethylpiperazin-1-yl)-3-(trifluoromethyl)phenyl)-4-methyl-3-(3-(pyridin-3-yl)acrylamido)benzamide]
< 1 | Cc1ccc(C(=O)Nc2ccc(C)c(C(F)(F)F)c2)cc1NC(=O)/C=C/c1cncnc1 [compound 77, N-(4-methyl-3-(trifluoromethyl)phenyl)-4-methyl-3-(3-(pyrimidin-5-yl)acrylamido)benzamide]
< 1 | Cc1ccc(C(=O)Nc2ccc(N3CCOCC3)c(C(F)(F)F)c2)cc1NC(=O)/C=C/c1cncnc1 [compound 78, N-(4-(morpholin-4-yl)-3-(trifluoromethyl)phenyl)-4-methyl-3-(3-(pyrimidin-5-yl)acrylamido)benzamide]
2 to 20 | Cc1ccc(C(=O)Nc2ccc(Cl)c(C(F)(F)F)c2)cc1NC(=O)/C=C/c1cncnc1 [compound 79, N-(4-chloro-3-(trifluoromethyl)phenyl)-4-methyl-3-(3-(pyrimidin-5-yl)acrylamido)benzamide]
2 to 20 | Cc1ccc(NC(=O)c2ccc(C)c(NC(=O)/C=C/c3cncnc3)c2)cc1F [compound 80, N-(3-fluoro-4-methylphenyl)-4-methyl-3-(3-(pyrimidin-5-yl)acrylamido)benzamide]
< 20 | Cc1ccc(C(=O)Nc2ccc(F)c(Cl)c2)cc1NC(=O)/C=C/c1cncnc1 [compound 81, N-(3-chloro-4-fluorophenyl)-4-methyl-3-(3-(pyrimidin-5-yl)acrylamido)benzamide]
< 20 | Cc1ccc(C(=O)Nc2c(C)cccc2Cl)cc1NC(=O)/C=C/c1cncnc1 [compound 82, N-(2-chloro-6-methylphenyl)-4-methyl-3-(3-(pyrimidin-5-yl)acrylamido)benzamide]
< 1 | Cc1cn(-c2cc(NC(=O)c3ccc(C)c(NC(=O)/C=C/c4cncnc4)c3)cc(C(F)(F)F)c2)cn1 [compound 90, N-(3-(4-methyl-1H-imidazol-1-yl)-5-(trifluoromethyl)phenyl)-4-methyl-3-(3-(pyrimidin-5-yl)acrylamido)benzamide]
10 to 20 | Cc1ccc(NC(=O)Nc2ccc(F)c(Cl)c2)cc1NC(=O)/C=C/c1cccnc1 [compound 102, N-(5-(3-(3-chloro-4-fluorophenyl)ureido)-2-methylphenyl)-3-(pyridin-3-yl)acrylamide]
